Assay results taken from patent publication US10023555B2, “NSAIDs derivatives and uses thereof” (Research Foundation of The City University of New York, priority 2013, dated 2018).
Like-named read-outs stand apart in the source and are kept apart here.

Assays:
Type in all cases: cell-based
[1] = system: MIA PaCa-2 human pancreatic cancer cells; assay: MTT cell growth inhibition, MIAPaCa2; settings: for IC50: Homo sapiens, read-out: IC50 for cell growth inhibition; for Enhanced Potency: ratio of IC50 NSAID/POSH-NSAID, fold-enhancement over parent, MIAPaCa2
[2] = system: BxPC-3 human pancreatic cancer cells; assay: MTT cell growth inhibition, BxPC3; settings: for IC50: Homo sapiens, read-out: IC50 for cell growth inhibition; for Enhanced Potency: ratio of IC50 NSAID/POSH-NSAID, fold-enhancement over parent, BxPC3
[3] = system: A549 human lung cancer cells; assay: MTT cell growth inhibition, A549; settings: for IC50: Homo sapiens, read-out: IC50 for cell growth inhibition; for Enhanced Potency: ratio of IC50 NSAID/POSH-NSAID, fold-enhancement over parent, A549
[4] = system: LNCAP human prostate cancer cells; assay: MTT cell growth inhibition, LNCAP; settings: 24 h; for IC50: Homo sapiens, read-out: IC50 for cell growth inhibition; for Enhanced Potency: ratio of IC50 NSAID/POSH-NSAID, fold-enhancement over parent, LNCAP
[5] = system: Jurkats human leukemia cells; assay: MTT cell growth inhibition, Jurkat; settings: 24 h; for IC50: Homo sapiens, read-out: IC50 for cell growth inhibition; for Enhanced Potency: ratio of IC50 NSAID/POSH-NSAID, fold-enhancement over parent
[6] = system: HT-29 human colon adenocarcinoma cells; assay: MTT cell growth inhibition, HT-29; settings: for IC50: Homo sapiens, read-out: IC50 for cell growth inhibition; for Enhanced Potency: ratio of IC50 NSAID/POSH-NSAID, fold-enhancement over parent, HT-29
[7] = system: HCT-15 human colon adenocarcinoma cells; assay: MTT cell growth inhibition, HCT 15; settings: for IC50: Homo sapiens, read-out: IC50 for cell growth inhibition; for Enhanced Potency: ratio of IC50 NSAID/POSH-NSAID, fold-enhancement over parent, HCT 15
[8] = system: SW-480 human colon adenocarcinoma cells; assay: MTT cell growth inhibition, SW480; settings: for IC50: Homo sapiens, read-out: IC50 for cell growth inhibition; for Enhanced Potency: ratio of IC50 NSAID/POSH-NSAID, fold-enhancement over parent, SW480
[9] = MIA PaCa-2, 24 h, Pancreas MIAPaCa2, mean ± SEM of three determinations
[10] = BXPC-3, 24 h, Pancreas BxPC3, mean ± SEM of three determinations
[11] = 24 h, Lung A549, mean ± SEM of three determinations
[12] = Prostate LNCAP, mean ± SEM of three determinations
[13] = Leukemia Jurkat, mean ± SEM of three determinations

Row | Structure (SMILES) | IC50 [1, 9] | IC50 [2, 10] | IC50 [3, 11] | IC50 [4, 12] | IC50 [5, 13] | IC50 ([6]; HT-29, 24 h) | Enhanced Potency ([6]; 24 h) | IC50 ([7]; HCT-15, 24 h) | Enhanced Potency ([7]; 24 h) | IC50 ([8]; SW480, 24 h) | Enhanced Potency ([8]; 24 h) | IC50 ([1]; MIA PaCa-2, 24 h) | Enhanced Potency ([1]; 24 h) | IC50 ([2]; BXPC-3, 24 h) | Enhanced Potency ([2]; 24 h) | IC50 ([3]; A549, 24 h) | Enhanced Potency ([3]; 24 h) | IC50 ([4]; LNCaP) | Enhanced Potency [4] | IC50 ([5]; Jurkat) | further results
1 | COc1ccc2cc([C@H](C)C(=O)O)ccc2c1 [NAP, naproxen, reference compound] | 3200 µM | 2600 µM | 2650 µM | 2990 µM | 2380 µM | – | – | – | – | – | – | – | – | – | – | – | – | – | – | – | –
2 | CCOP(=O)(OCC)OCCSSCCOC(=O)C(C)c1ccc2cc(OC)ccc2c1 (stereo not drawn) [POSH-NAP] | – | – | – | – | – | 0.15 µM | ~18,000 | 0.12 µM | ~24,000 | 0.18 µM | ~17,000 | 0.088 µM | ~36,000 | 0.1 µM | ~26,000 | 0.16 µM | ~16,000 | 0.13 µM | ~25,000 | 0.17 µM | Enhanced Potency ([5]; Jurkat): ~14,000
3 | CC(=O)Oc1ccccc1C(=O)O [ASA, aspirin, reference compound] | > 5000 µM | > 5000 µM | > 5000 µM | > 5000 µM | > 5000 µM | – | – | – | – | – | – | – | – | – | – | – | – | – | – | – | IC50 ([6]; 24 h, Colon HT-29, mean ± SEM of three determinations): > 5000 µM; IC50 ([7]; 24 h, Colon HCT 15, mean ± SEM of three determinations): > 5000 µM; IC50 ([8]; 24 h, Colon SW480, mean ± SEM of three determinations): > 5000 µM
4 | CCOP(=O)(OCC)OCCSSCCOC(=O)c1ccccc1OC(C)=O [POSH-ASA] | – | – | – | – | – | 0.082 µM | >60,000 | 0.075 µM | >65,000 | 0.092 µM | >50,000 | 0.082 µM | >60,000 | 0.075 µM | >65,000 | 0.083 µM | >60,000 | 0.075 µM | >65,000 | 0.22 µM | Enhanced Potency ([5]; Jurkat): >20,000
